pIC50: −log10 of the molar value.
Columns and labels:
[1] = test system: herpes simplex virus type 1 strain HF; test: Anti-HSV-1 Cytoprotection Assay (CPE reduction, MTS)
[2] = in vitro; conditions: African green monkey
Description: Anti-HSV-1 Cytoprotection Assay.

[3] = test system: HIV-1RF; test: Anti-HIV-1 Cytoprotection Assay (XTT); conditions: AZT control

Row | SMILES | pIC50 ([1]; Human alphaherpesvirus 1) | pIC50 ([1]; Human alphaherpesvirus 1, Vero) | pIC50 [2] | positive control result [3]
1 | Nc1nc2c(ncn2COCCO)c(=O)[nH]1 [Acyclovir] | 5.62 | 5.62 | < 4.00 | –
2 | Cc1cn([C@H]2C[C@H](N=[N+]=[N-])[C@@H](CO)O2)c(=O)[nH]c1=O [AZT] | – | – | – | within the expected parameters

From patent US7083814B2, “Antiviral substances from plant cuticular and epicuticular material” (Rutgers, The State University of New Jersey, priority 2000, dated 2006)
